The text below walks through data of US7511077B2, “Diamine calcium channel blockers” (Neuromed Pharmaceuticals Ltd., priority 2005, dated 2009).

The target of test [1] is T1, human α1G T-type channels (Homo sapiens, UniProt O43497).
T1 construct: expressed in transfected cells; host or cells: HEK cell lines
Description: T-type calcium channel block, patch clamp in HEK cell lines. The class given is cell-based. Here is the method: Standard patch-clamp techniques were employed to identify blockers of T-type currents. Briefly, previously described HEK cell lines stably expressing human α1G T-type channels were used for all the recordings (passage #: 4-20, 37° C., 5% CO2). To obtain T-type currents, plastic dishes containing semi-confluent cells were positioned on the stage of a ZEISS AXIOVERT S100 microscope after replacing the culture medium with external solution (see below). Whole-cell patches were obtained using pipettes (borosilicate glass with filament, O.D.: 1.5 mm, I.D.: 0.86 mm, 10 cm length), fabricated on a SUTTER P-97 puller with resistance values of ˜5 MΩ (see below for internal solution).
T-type currents were reliably obtained by using two voltage protocols: • (1) “non-inactivating”, and (2) “inactivation”
In the non-inactivating protocol, the holding potential is set at −110 mV and with a pre-pulse at −100 mV for 1 second prior to the test pulse at −40 mV for 50 ms. In the inactivation protocol, the pre-pulse is at approximately −85 mV for 1 second, which inactivates about 15% of the T-type channels.
Test compounds were dissolved in external solution, 0.1-0.01% DMSO. After ˜10 min rest, they were applied by gravity close to the cell using a WPI microfil tubing. The “non-inactivated” pre-pulse was used to examine the resting block of a compound. The “inactivated” protocol was employed to study voltage-dependent block. However, the initial data shown below were mainly obtained using the non-inactivated protocol only. IC50 values are shown for various compounds of the invention in Table 5.

Test [2] relates to Rings from Rat Portal Vein maximally pre-contracted with PE. Nature of the test: Relaxation of pre-contracted rings from rat portal vein. The settings on record: compound at 10^−5 M, rings maximally pre-contracted with PE at 10^−4 M, read-out: Portal vein Max % relax.
The target in test [3] is T2, rat brain N-type calcium channel subunits (α1B+α2δ+β1b cDNA subunits) (Rattus norvegicus, UniProt Q02294).
T2 construct: expressed in transfected cells; host or cells: HEK 293
T2 sequence (Q02294 whole entry): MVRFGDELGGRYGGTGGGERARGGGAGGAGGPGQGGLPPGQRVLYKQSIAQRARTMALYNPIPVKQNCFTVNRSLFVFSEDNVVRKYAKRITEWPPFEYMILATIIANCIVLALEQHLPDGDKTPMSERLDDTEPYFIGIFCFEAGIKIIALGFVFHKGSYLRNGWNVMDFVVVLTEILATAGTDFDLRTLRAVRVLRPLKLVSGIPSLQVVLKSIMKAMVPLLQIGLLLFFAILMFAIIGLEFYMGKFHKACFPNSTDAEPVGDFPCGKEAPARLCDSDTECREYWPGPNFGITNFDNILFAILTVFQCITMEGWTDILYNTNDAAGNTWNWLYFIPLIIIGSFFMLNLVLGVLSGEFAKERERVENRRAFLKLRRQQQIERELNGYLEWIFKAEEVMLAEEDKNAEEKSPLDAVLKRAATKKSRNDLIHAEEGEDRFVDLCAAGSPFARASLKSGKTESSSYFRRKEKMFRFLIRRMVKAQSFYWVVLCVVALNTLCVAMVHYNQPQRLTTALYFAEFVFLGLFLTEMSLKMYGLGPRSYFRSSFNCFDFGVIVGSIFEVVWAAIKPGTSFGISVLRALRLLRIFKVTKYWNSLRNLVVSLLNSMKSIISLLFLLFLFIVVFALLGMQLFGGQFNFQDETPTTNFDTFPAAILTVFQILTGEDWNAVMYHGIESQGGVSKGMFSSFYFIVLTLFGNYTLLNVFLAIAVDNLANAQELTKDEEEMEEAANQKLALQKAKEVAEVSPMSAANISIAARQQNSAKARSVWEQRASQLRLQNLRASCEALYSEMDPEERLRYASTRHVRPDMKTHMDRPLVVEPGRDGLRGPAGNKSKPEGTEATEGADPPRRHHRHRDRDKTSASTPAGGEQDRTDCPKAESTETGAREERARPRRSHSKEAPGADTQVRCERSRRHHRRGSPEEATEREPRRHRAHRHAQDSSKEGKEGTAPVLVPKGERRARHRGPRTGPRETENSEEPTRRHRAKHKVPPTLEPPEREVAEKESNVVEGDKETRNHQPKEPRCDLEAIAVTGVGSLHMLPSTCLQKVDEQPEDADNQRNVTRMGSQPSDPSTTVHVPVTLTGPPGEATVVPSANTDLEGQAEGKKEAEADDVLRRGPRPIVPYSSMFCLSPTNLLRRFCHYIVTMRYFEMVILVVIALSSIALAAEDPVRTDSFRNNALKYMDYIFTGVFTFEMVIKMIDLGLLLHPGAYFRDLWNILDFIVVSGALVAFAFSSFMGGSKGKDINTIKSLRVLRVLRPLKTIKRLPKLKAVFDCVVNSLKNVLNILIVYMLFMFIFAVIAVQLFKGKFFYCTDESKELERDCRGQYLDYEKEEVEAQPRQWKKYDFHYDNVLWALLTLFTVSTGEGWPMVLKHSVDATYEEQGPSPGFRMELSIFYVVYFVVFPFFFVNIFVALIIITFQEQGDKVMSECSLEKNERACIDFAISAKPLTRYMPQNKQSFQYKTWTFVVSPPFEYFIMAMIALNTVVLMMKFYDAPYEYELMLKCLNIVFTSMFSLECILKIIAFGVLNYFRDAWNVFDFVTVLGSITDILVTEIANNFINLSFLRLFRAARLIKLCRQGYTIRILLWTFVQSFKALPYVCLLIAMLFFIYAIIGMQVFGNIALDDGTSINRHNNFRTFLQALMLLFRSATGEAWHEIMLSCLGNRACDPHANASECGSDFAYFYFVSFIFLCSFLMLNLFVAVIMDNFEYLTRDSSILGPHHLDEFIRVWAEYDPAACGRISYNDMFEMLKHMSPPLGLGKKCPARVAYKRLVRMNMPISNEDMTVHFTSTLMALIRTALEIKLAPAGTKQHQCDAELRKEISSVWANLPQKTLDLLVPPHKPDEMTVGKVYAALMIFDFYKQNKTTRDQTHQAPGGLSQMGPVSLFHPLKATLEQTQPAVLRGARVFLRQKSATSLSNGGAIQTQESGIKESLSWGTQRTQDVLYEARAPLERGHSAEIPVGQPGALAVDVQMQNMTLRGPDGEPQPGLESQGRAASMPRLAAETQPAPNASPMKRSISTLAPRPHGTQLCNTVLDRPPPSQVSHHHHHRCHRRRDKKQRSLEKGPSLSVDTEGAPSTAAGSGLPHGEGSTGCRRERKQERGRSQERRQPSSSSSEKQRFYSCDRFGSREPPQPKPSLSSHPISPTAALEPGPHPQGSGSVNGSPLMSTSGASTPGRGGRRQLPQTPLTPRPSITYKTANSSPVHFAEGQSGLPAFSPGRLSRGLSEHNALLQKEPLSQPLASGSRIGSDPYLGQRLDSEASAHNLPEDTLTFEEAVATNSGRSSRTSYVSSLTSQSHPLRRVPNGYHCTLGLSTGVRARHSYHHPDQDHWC
Description: N-type calcium channel block, whole cell patch clamp in HEK 293 cells. It is filed as cell-based. The settings on record: holding potential −80 mV to +10 mV. Here is the method: N-type calcium channel blocking activity was assayed in human embryonic kidney cells, HEK 293, stably transfected with the rat brain N-type calcium channel subunits (α1B+α2δ+β1b cDNA subunits). Alternatively, N-type calcium channels (α1B+α2δ+β1b cDNA subunits), L-type channels (α1C+α2δ+β1b cDNA subunits) and P/Q-type channels (α1A+α2δ+β1b cDNA subunits) were transiently expressed in HEK 293 cells. Briefly, cells were cultured in Dulbecco's modified eagle medium (DMEM) supplemented with 10% fetal bovine serum, 200 U/ml penicillin and 0.2 mg/ml streptomycin at 37° C. with 5% CO2. At 85% confluency cells were split with 0.25% trypsin/1 mM EDTA and plated at 10% confluency on glass coverslips. At 12 hours the medium was replaced and the cells transiently transfected using a standard calcium phosphate protocol and the appropriate calcium channel cDNA's. Fresh DMEM was supplied and the cells transferred to 28° C./5% CO2. Cells were incubated for 1 to 2 days prior to whole cell recording.
Whole cell patch clamp experiments were performed using an Axopatch 200B amplifier (Axon Instruments, Burlingame, Calif.) linked to a personal computer equipped with pCLAMP software. The external and internal recording solutions contained, respectively, 5 mM BaCl2, 10 mM MgCl2, 10 mM HEPES, 40 mM TEACl, 10 mM glucose, 87.5 mM CsCl (pH 7.2) and 108 mM CsMS, 4 mM MgCl2, 9 mM EGTA, 9 mM HEPES (pH 7.2). Currents were typically elicited from a holding potential of −80 mV to +10 mV using Clampex software (Axon Instruments). Typically, currents were first elicited with low frequency stimulation (0.067 Hz) and allowed to stabilize prior to application of the compounds. The compounds were then applied during the low frequency pulse trains for two to three minutes to assess tonic block, and subsequently the pulse frequency was increased to 0.2 Hz to assess frequency dependent block. Data were analyzed using Clampfit (Axon Instruments) and SigmaPlot 4.0 (Jandel Scientific).

Test [4] has as its system Rings from Rat Mesenteric Artery maximally pre-contracted with PE. Description: Relaxation of pre-contracted rings from rat mesenteric artery. The note with it: compound at 10^−5 M, rings maximally pre-contracted with PE at 10^−4 M, read-out: Mesenteric artery Max % relax. Here is the method:
Sprague-Dawley rats (350-400 g, Charles River Canada) were anaesthetized with sodium pentobarbital (60 mg/kg). The mesenteric arteries were removed and suspended in a tissue bath filled with Krebs-Henseleit solution aerated with 95% O2 and 5% CO2 at 37° C. The tissues were equilibrated for one hour prior to the construction of a concentration-response curve to phenylephrine (PE). Following recovery of the response to PE, a second curve to PE was constructed at 5 min after the addition of a calcium channel blocker (n=2-8, each from a separate rat) or the vehicle (50 μl of equimolar DMSO). After recovery, a third and fourth curve to PE were constructed after addition of a higher concentration of blocker or vehicle. The protocol was repeated using portal veins (n=4, each from a separate rat).

Test [5] can be described thus: Blood pressure reduction in SHR. The class given is in vivo.
Test [6] deals with T-type over L-type channels. The settings on record: cited from earlier work.
Setting [7] is: non-inactivating protocol, pre-pulse −100 mV (resting block), read-out: IC50 @ −100 mV.
The mark [8] stands for this setting: −80 mV (inactivation protocol, voltage-dependent block), read-out: IC50 @ −80 mV.
Setting [9] is: low frequency stimulation 0.067 Hz (tonic block), read-out: IC50 @ 0.067 Hz.
The mark [10] stands for this setting: pulse frequency 0.2 Hz (frequency dependent block), read-out: IC50 @ 0.2 Hz.

Like-named read-outs stand apart in the source and are kept apart here.

T1 sequence (O43497 whole entry): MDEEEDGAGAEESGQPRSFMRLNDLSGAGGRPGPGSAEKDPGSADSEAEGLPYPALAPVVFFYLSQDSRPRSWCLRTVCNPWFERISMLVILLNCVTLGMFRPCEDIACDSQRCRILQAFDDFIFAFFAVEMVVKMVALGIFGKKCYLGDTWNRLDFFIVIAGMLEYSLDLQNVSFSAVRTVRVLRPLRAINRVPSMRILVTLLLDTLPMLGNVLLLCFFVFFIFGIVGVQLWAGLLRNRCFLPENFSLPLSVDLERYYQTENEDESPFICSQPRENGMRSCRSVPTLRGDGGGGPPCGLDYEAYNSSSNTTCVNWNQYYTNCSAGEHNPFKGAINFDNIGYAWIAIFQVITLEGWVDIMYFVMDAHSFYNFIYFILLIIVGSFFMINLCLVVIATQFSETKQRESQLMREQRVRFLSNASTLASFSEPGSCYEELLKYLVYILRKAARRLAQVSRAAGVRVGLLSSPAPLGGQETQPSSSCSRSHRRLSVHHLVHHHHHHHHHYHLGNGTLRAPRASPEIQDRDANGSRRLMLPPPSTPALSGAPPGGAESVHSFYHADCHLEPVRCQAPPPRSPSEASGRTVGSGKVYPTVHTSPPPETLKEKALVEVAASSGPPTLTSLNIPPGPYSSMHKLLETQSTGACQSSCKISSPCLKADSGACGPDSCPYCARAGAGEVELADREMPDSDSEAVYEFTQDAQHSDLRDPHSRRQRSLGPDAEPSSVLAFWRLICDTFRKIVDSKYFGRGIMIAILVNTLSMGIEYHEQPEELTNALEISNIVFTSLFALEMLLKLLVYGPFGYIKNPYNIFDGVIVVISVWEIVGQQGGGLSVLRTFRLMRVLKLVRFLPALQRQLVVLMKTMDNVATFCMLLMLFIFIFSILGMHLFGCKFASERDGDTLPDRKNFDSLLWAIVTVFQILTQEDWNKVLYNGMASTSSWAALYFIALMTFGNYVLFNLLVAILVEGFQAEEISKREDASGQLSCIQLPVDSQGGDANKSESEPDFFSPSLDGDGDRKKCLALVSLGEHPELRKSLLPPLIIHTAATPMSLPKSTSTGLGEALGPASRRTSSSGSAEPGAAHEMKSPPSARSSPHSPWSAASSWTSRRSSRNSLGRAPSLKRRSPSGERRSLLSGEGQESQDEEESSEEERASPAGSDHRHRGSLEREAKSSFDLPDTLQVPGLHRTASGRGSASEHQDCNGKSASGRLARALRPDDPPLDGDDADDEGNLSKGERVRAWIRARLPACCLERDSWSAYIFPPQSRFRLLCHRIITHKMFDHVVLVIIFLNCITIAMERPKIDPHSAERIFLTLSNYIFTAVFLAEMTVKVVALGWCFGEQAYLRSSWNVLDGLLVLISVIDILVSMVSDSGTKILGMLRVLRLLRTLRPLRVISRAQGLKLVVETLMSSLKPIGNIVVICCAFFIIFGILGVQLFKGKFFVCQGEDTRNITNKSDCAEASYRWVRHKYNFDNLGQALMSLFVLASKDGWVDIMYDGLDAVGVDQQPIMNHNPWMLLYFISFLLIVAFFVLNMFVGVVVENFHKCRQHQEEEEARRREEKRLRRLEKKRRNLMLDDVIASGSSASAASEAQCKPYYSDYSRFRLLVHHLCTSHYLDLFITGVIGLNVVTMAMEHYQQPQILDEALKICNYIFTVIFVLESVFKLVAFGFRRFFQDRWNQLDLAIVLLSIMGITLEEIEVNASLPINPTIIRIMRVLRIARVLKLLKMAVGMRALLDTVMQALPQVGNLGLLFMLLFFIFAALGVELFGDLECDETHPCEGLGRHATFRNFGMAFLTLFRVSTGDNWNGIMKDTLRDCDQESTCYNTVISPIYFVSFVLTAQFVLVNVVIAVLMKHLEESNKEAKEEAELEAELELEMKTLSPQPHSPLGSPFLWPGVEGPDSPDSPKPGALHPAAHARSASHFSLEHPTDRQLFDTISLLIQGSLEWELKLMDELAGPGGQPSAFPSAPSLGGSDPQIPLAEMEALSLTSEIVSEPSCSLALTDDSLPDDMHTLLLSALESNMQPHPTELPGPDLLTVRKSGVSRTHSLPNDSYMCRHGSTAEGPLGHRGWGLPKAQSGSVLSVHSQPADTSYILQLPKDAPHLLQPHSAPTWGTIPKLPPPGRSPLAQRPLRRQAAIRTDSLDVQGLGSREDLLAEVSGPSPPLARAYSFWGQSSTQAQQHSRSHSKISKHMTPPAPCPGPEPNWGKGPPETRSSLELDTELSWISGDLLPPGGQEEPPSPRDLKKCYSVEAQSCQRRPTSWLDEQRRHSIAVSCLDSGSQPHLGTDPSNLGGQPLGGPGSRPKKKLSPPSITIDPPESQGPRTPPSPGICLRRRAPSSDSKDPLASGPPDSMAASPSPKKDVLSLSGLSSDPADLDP

For orientation: IC50 means the point on the concentration scale where inhibition reaches its midpoint. As for `O=C(CCCCC(c1ccc(F)cc1)c1ccc(F)cc1)NC/C=C\CNC(=O)COc1ccc(Cl)cc1` [Compound P6, 6,6-Bis-(4-fluoro-phenyl)-hexanoic acid{(Z)-4-[2-(4-chloro-phenoxy)-acetylamino]-but-2-enyl}-amide], the IC50 in test [1] (setting [7]) was determined as 128 nM; in test [1] (setting [8]) it was 67 nM; in test [3] (setting [9]) it was 58 nM; in test [3] (setting [10]), 27 nM. In addition, the values for the Emax at 10 µM in test [2] and in test [4] were 28% and 35%, respectively.

With `O=C(CCCCC(c1ccc(F)cc1)c1ccc(F)cc1)NC/C=C/CNC(=O)c1cc(C(F)(F)F)cc(C(F)(F)F)c1` [Compound P15, N-{(E)-4-[6,6-Bis-(4-fluoro-phenyl)-hexanoylamino]-but-2-enyl}-3,5-bis-trifluoromethyl-benzamide], the IC50 is 54 nM in test [1] (setting [7]), 21 nM in test [1] (setting [8]), 19 nM in test [3] (setting [9]) and 127 nM in test [3] (setting [10]). The Emax at 10 µM in test [4] is 9%.

In the case of `Cc1ccc(C(=O)NCC#CCNC(=O)CCCCC(c2ccc(F)cc2)c2ccc(F)cc2)cc1` [Compound P26, N-{4-[6,6-Bis-(4-fluoro-phenyl)-hexanoylamino]-but-2-ynyl}-4-methyl-benzamide], the IC50 in test [1] (setting [7]) was 336 nM; in test [1] (setting [8]) it was 202 nM; in test [3] (setting [9]), 144 nM; in test [3] (setting [10]), 40 nM. Moreover, the Emax at 10 µM in test [2] was 34%; in test [4] it was 40%.

As to `O=C(CC(c1ccccc1)c1ccccc1)NCC#CCN(Cc1ccccn1)Cc1ccccn1` [Compound P32, N-[4-(Bis-pyridin-2-ylmethyl-amino)-but-2-ynyl]-3,3-diphenyl-propionamide], the half-inhibitory concentration (IC50) came out at 1800 nM in test [1] (setting [7]), 1100 nM in test [1] (setting [8]), 2200 nM in test [3] (setting [9]) and 568 nM in test [3] (setting [10]). The values for the Emax at 10 µM in test [2] and in test [4] were 49% and 50%, respectively.

In the case of `O=C(CCCCC(c1ccc(F)cc1)c1ccc(F)cc1)NCC#CCNC(=O)c1ccc(Cl)cc1` [Compound P28, N-{4-[6,6-Bis-(4-fluoro-phenyl)-hexanoylamino]-but-2-ynyl}-4-chloro-benzamide], the 50% inhibitory concentration (IC50) was determined as 72 nM in test [1] (setting [7]), 29 nM in test [1] (setting [8]), 360 nM in test [3] (setting [9]) and 360 nM in test [3] (setting [10]). The figures for the Emax at 10 µM in test [2] and in test [4] were 25% and 61%, respectively. Moreover, the “BP SHR at 4 hrs % reduction” value in test [5] amounted to 13 n = 4%.

On to `O=C(CCCCC(c1ccc(F)cc1)c1ccc(F)cc1)NC/C=C\CNC(=O)c1cc(C(F)(F)F)cc(C(F)(F)F)c1` [Compound P5, N-{(Z)-4-[6,6-Bis-(4-fluoro-phenyl)-hexanoylamino]-but-2-enyl}-3,5-bis-trifluoromethyl-benzamide], for which the half-maximal inhibitory concentration (IC50) in test [1] (setting [7]) was determined as 27 nM; in test [1] (setting [8]) it was 7 nM; in test [3] (setting [9]) it was 74 nM; in test [3] (setting [10]), 46 nM. The Emax at 10 µM in test [4] amounted to 10%.

Turning to `COc1ccc(C(=O)NCC#CCNC(=O)CCCCC(c2ccc(F)cc2)c2ccc(F)cc2)cc1` [Compound P27, N-{4-[6,6-Bis-(4-fluoro-phenyl)-hexanoylamino]-but-2-ynyl}-4-methoxy-benzamide], the values for the Emax at 10 µM in test [2] and in test [4] were 51% and 41%, respectively.

Regarding `COCC(=O)O[C@]1(CCN(C)CCCc2nc3ccccc3[nH]2)CCc2cc(F)ccc2[C@@H]1C(C)C` [Mibefradil], the “selective for T-type over L-type channels” value in test [6] is 10-30 fold.

As for `CC(C)(C)c1ccc(C(=O)NCC#CCNC(=O)CCCCC(c2ccc(F)cc2)c2ccc(F)cc2)cc1` [Compound P24, N-{4-[6,6-Bis-(4-fluoro-phenyl)-hexanoylamino]-but-2-ynyl}-4-tert-butyl-benzamide], the Emax at 10 µM in test [4] is 0%.

As to `CC(C)(C)c1ccc(C(=O)NC/C=C\CNC(=O)CCCCC(c2ccc(F)cc2)c2ccc(F)cc2)cc1` [Compound P4, N-{(Z)-4-[6,6-Bis-(4-fluoro-phenyl)-hexanoylamino]-but-2-enyl}-4-tert-butyl-benzamide], the IC50 in test [1] (setting [7]) turned out to be 38 nM; in test [1] (setting [8]), 12 nM; in test [3] (setting [9]), 86 nM; in test [3] (setting [10]), 59 nM. Moreover, the Emax at 10 µM in test [4] was determined as 8%.

Take `O=C(CCCCC(c1ccc(F)cc1)c1ccc(F)cc1)NC/C=C\CNC(=O)c1ccc(F)cc1` [Compound P10, N-{(Z)-4-[6,6-Bis-(4-fluoro-phenyl)-hexanoylamino]-but-2-enyl}-4-fluoro-benzamide]: the IC50 in test [1] (setting [7]) is 20 nM; in test [1] (setting [8]) it was 6 nM; in test [3] (setting [9]) it was 182 nM; in test [3] (setting [10]), 112 nM. Also, the Emax at 10 µM in test [2] was 38%; in test [4], 35%.

Consider `COc1c(C(C)(C)C)cc(C(=O)NCC#CCNC(=O)CCCCC(c2ccc(F)cc2)c2ccc(F)cc2)cc1C(C)(C)C` [Compound P23, N-{4-[6,6-Bis-(4-fluoro-phenyl)-hexanoylamino]-but-2-ynyl}-3,5-di-tert-butyl-4-methoxy-benzamide], for which, in test [4], the Emax at 10 µM is 0%.

Take `O=C(CCCCC(c1ccc(F)cc1)c1ccc(F)cc1)NCC#CCNC(=O)c1ccc(F)cc1` [Compound P29, N-{4-[6,6-Bis-(4-fluoro-phenyl)-hexanoylamino]-but-2-ynyl}-4-fluoro-benzamide]: the IC50 in test [1] (setting [7]) turned out to be 696 nM; in test [1] (setting [8]) it was 101 nM; in test [3] (setting [9]), 290 nM; in test [3] (setting [10]), 290 nM. In addition, the Emax at 10 µM in test [2] was determined as 51%; in test [4], 63%.

As for `CC(C)c1ccc(C(=O)NC/C=C/CNC(=O)CCCCC(c2ccc(F)cc2)c2ccc(F)cc2)cc1` [Compound P17, N-{(E)-4-[6,6-Bis-(4-fluoro-phenyl)-hexanoylamino]-but-2-enyl}-4-isopropyl-benzamide], the IC50 turned out to be 7 nM in test [1] (setting [7]), 3 nM in test [1] (setting [8]), 598 nM in test [3] (setting [9]) and 266 nM in test [3] (setting [10]).

As to `CC(C)c1ccc(C(=O)NCCCCNC(=O)CCCCC(c2ccc(F)cc2)c2ccc(F)cc2)cc1` [Compound P37, N-{4-[6,6-Bis-(4-fluoro-phenyl)-hexanoylamino]-butyl}-4-isopropyl-benzamide], the IC50 in test [1] (setting [7]) is 31 nM; in test [1] (setting [8]) it was 8 nM; in test [3] (setting [9]) it was 310 nM; in test [3] (setting [10]) it was 300 nM. The values for the Emax at 10 µM in test [2] and in test [4] were 51% and 42%, respectively.
